# In patent publication US20250092022A1, “MUSCARINIC RECEPTOR 4 ANTAGONISTS AND METHODS OF USE” (Neurocrine Biosciences, Inc., priority 2021, published 2025):
# Molecular target: human M4 receptor (Homo sapiens (Human), UniProt P08173)
# Test: Binding assay: inhibition of radioligand (tritiated N-methylscopolamine) binding to membranes from CHO cells expressing human M4 receptor
# Conditions: CHO cell membranes, 1.5 nM tritiated N-methylscopolamine
# Method: Binding affinity (Ki) for the compounds was measured by inhibition of radioligand binding to membranes from CHO cells expressing human M4 receptor. Membranes were prepared by nitrogen cavitation and differential centrifugation as previously described (Hoare et al., Mol. Pharmacol. 2003 March; 63(3): 751-65). The radioligand employed was tritiated N-methylscopolamine, used at a concentration of 1.5 nM. A dose-response of twelve concentrations of compound was used, ranging from […]. The assay buffer was 50 mM HEPES, 100 mM NaCl, 5 mM MgCl2, 1 mM ethylenediaminetetraacetic acid, pH-adjusted to pH 7.4. Membranes, radioligand and compound were incubated together for 90 minutes at 37° C., in a total volume of 150 μL in a 96-well plate. Receptor-bound radioligand was then collected by harvesting the assay over glass fiber filters pretreated with polyethylenimine to trap the cell membranes, using rapid vacuum filtration. Harvesting and radioactivity counting was conducted as previously described (see, e.g., Hoare et al., Mol. Pharmacol. 2003 63(3):751-65); Erratum at Mol. Pharmacol. 2005 July; 68(1): 260).
# Chain of human M4 receptor (P08173 whole entry): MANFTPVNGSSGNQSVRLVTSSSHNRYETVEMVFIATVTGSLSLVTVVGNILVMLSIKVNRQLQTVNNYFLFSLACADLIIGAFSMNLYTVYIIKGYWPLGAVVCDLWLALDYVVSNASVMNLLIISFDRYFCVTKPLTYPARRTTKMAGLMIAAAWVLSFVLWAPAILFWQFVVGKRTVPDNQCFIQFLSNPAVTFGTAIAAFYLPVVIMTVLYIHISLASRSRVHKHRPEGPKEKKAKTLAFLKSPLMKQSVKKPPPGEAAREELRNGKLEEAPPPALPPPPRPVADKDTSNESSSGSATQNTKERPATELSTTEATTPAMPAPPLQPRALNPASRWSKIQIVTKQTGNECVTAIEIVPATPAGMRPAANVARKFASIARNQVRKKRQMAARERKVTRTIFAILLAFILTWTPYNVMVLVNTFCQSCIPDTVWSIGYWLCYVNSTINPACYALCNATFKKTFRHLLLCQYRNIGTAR
row,Structure (SMILES),Ki [nM]
1,"C[C@H](O)COc1cnc(N2C[C@@H](C)N(C(=O)OC3CC4(C3)CN(Cc3ccccc3)C4)[C@@H](C)C2)nc1 [Compound 55, 2-benzyl-2-azaspiro [3.3]heptan-6-yl (2R,6S)-4-{5-[(2S)-2-hydroxypropoxy]pyrimidin-2-yl}-2,6-dimethylpiperazine-1-carboxylate]",≥ 500
2,"CC(C)S(=O)(=O)c1cnc(N2C[C@@H](C)N(C(=O)OC3CC4(C3)CN(Cc3ccccc3)C4)[C@@H](C)C2)nc1 [Compound 42, 2-benzyl-2-azaspiro [3.3]heptan-6-yl (2R,6S)-2,6-dimethyl-4-[5-(propane-2-sulfonyl)pyrimidin-2-yl]piperazine-1-carboxylate]",100 to 500
3,"CC(C)S(=O)(=O)c1cnc(N2C[C@@H](C)N(C(=O)OC3CC4(C3)CN(Cc3ccccc3)C4)C[C@@H]2C)nc1 [Compound 26, 2-benzyl-2-azaspiro [3.3]heptan-6-yl (2R,5S)-2,5-dimethyl-4-[5-(propane-2-sulfonyl)pyrimidin-2-yl]piperazine-1-carboxylate]",< 100
4,"CCS(=O)(=O)c1cnc(N2C[C@@H](C)N(C(=O)NC3CC4(C3)CN(Cc3ccccc3)C4)[C@@H](C)C2)nc1 [Compound 2, (2R,6S)-N-{2-benzyl-2-azaspiro[3.3]heptan-6-yl}-4-[5-(ethanesulfonyl)pyrimidin-2-yl]-2,6-dimethylpiperazine-1-carboxamide]",< 100
5,"C[C@@H]1CN(c2ncc(S(C)(=O)=O)cn2)CCN1C(=O)OC1CC2(C1)CN(Cc1ccccc1)C2 [Compound 13, 2-benzyl-2-azaspiro [3.3]heptan-6-yl (2R)-4-(5-methanesulfonyl-pyrimidin-2-yl)-2-methylpiperazine-1-carboxylate]",100 to 500
6,"C[C@@H]1CN(c2ncc(S(=O)(=O)C(F)F)cn2)[C@@H](C)CN1C(=O)OC1CC2(C1)CN(Cc1ccccc1)C2 [Compound 24, 2-benzyl-2-azaspiro [3.3]heptan-6-yl (2R,5S)-4-(5-difluoromethanesulfonyl-pyrimidin-2-yl)-2,5-dimethylpiperazine-1-carboxylate]",< 100
7,"CCS(=O)(=O)c1cnc(N2C[C@@H](C)N(C(=O)OC3CC4(C3)CN(Cc3ccccc3)C4)[C@H](C)C2)nc1 [Compound 18, 2-benzyl-2-azaspiro [3.3]heptan-6-yl (2R,6R)-4-[5-(ethane-sulfonyl)pyrimidin-2-yl]-2,6-dimethylpiperazine-1-carboxylate]",100 to 500
8,"C[C@@H]1CN(c2ncc(O)cn2)C[C@H](C)N1C(=O)OC1CC2(C1)CN(Cc1ccccc1)C2 [Compound 51, 2-benzyl-2-azaspiro [3.3]heptan-6-yl (2R,6S)-4-(5-hydroxypyrimidin-2-yl)-2,6-dimethyl-piperazine-1-carboxylate]",≥ 500
9,"CCS(=O)(=O)c1cnc(N2CCN(C(=O)NC3CC4(C3)CN(Cc3ccccc3)C4)[C@H](C)C2)nc1 [Compound 7, (2R)-N-{2-benzyl-2-azaspiro[3.3]heptan-6-yl}-4-[5-(ethanesulfonyl)pyrimidin-2-yl]-2-methylpiperazine-1-carboxamide]",100 to 500
10,"C[C@@H]1CN(c2ncc(S(=O)(=O)C3CC3)cn2)[C@@H](C)CN1C(=O)NC1CC2(C1)CN(Cc1ccccc1)C2 [Compound 6, (2R,5S)-N-{2-benzyl-2-azaspiro[3.3]heptan-6-yl}-4-[5-(cyclopropane-sulfonyl)pyrimidin-2-yl]-2,5-dimethylpiperazine-1-carboxamide]",< 100
11,"C[C@@H]1CN(c2ncc(N3CCCC3=O)cn2)C[C@H](C)N1C(=O)OC1CC2(C1)CN(Cc1ccccc1)C2 [Compound 30, 2-benzyl-2-azaspiro [3.3]heptan-6-yl (2R,6S)-2,6-dimethyl-4-[5-(2-oxopyrrolidin-1-yl)pyrimidin-2-yl]piperazine-1-carboxylate]",≥ 500
12,"C[C@@H]1CN(c2ncc(S(=O)(=O)C3CC3)cn2)CCN1C(=O)NC1CC2(C1)CN(Cc1ccccc1)C2 [Compound 8, (2R)-N-{2-benzyl-2-azaspiro[3.3]heptan-6-yl}-4-[5-(cyclopropanesulfonyl)pyrimidin-2-yl]-2-methylpiperazine-1-carboxamide]",100 to 500
13,"C[C@@H]1CN(c2ncc3c(n2)CCS3(=O)=O)C[C@H](C)N1C(=O)OC1CC2(C1)CN(Cc1ccccc1)C2 [Compound 39, 2-benzyl-2-azaspiro [3.3]heptan-6-yl (2R,6S)-4-{5,5-dioxo-6H, 7H-5λ^6-thieno[3,2-d]pyrimidin-2-yl}-2,6-dimethylpiperazine-1-carboxylate]",100 to 500
14,"COc1cnc(N2C[C@@H](C)N(C(=O)OC3CC4(C3)CN(Cc3ccccc3)C4)[C@@H](C)C2)nc1 [Compound 45, 2-benzyl-2-azaspiro [3.3]heptan-2-yl (2R,6S)-4-(5-methoxypyrimidin-2-yl)-2,6-dimethyl-piperazine-1-carboxylate]",≥ 500
15,"CC[C@H](O)COc1cnc(N2C[C@@H](C)N(C(=O)OC3CC4(C3)CN(Cc3ccccc3)C4)[C@@H](C)C2)nc1 [Compound 57, 2-benzyl-2-azaspiro [3.3]heptan-6-yl (2R,6S)-4-{5-[(2S)-2-hydroxybutoxy]pyrimidin-2-yl}-2,6-dimethyl-piperazine-1-carboxylate]",100 to 500
16,"C[C@@H]1CN(c2ncc(S(C)(=O)=O)cn2)[C@@H](C)CN1C(=O)OC1CC2(C1)CN(Cc1ccccc1)C2 [Compound 12, 2-benzyl-2-azaspiro [3.3]heptan-6-yl (2R,5S)-4-(5-methane-sulfonylpyrimidin-2-yl)-2,5-dimethylpiperazine-1-carboxylate]",< 100
17,"C[C@@H]1CN(c2ncc(OCC(C)(C)O)cn2)C[C@H](C)N1C(=O)OC1CC2(C1)CN(Cc1ccccc1)C2 [Compound 59, 2-benzyl-2-azaspiro [3.3]heptan-6-yl (2R,6S)-4-[5-(2-hydroxy-2-methylpropoxy)pyrimidin-2-yl]-2,6-dimethyl-piperazine-1-carboxylate]",100 to 500
18,"CCS(=O)(=O)c1cnc(N2C[C@@H](C)N(C(=O)NC3CC4(C3)CN(Cc3ccccc3)C4)C[C@@H]2C)nc1 [Compound 5, (2R,5S)-N-{2-benzyl-2-azaspiro[3.3]heptan-6-yl}-4-[5-(ethanesulfonyl)pyrimidin-2-yl]-2,5-dimethylpiperazine-1-carboxamide]",< 100
19,"C[C@@H]1CN(c2ncc(OCC(O)CF)cn2)C[C@H](C)N1C(=O)OC1CC2(C1)CN(Cc1ccccc1)C2 (stereo partly drawn) [Compound 53, 2-benzyl-2-azaspiro [3.3]heptan-6-yl (2R,6S)-4-[5-(3-fluoro-2-hydroxypropoxy)pyrimidin-2-yl]-2,6-dimethyl-piperazine-1-carboxylate]",≥ 500
20,"COc1ccccc1CN1CC2(CC(OC(=O)N3[C@H](C)CN(c4ncc(S(C)(=O)=O)cn4)C[C@@H]3C)C2)C1 [Compound 62, 2-[(2-methoxyphenyl)methyl]-2-azaspiro[3.3] heptan-6-yl (2R,6S)-4-(5-methanesulfonylpyrimidin-2-yl)-2,6-dimethyl-piperazine-1-carboxylate]",≥ 500
21,"CCS(=O)(=O)c1cnc(N2CCN(C(=O)OC3CC4(C3)CN(Cc3ccccc3)C4)[C@H](C)C2)nc1 [Compound 21, 2-benzyl-2-azaspiro [3.3]heptan-6-yl (2R)-4-[5-(ethanesulfonyl)-pyrimidin-2-yl]-2-methylpiperazine-1-carboxylate]",< 100
22,"C[C@@H]1CN(c2ncc(S(C)(=O)=O)cn2)C[C@H](C)N1C(=O)OC1CC2(C1)CN(Cc1ccc(F)cc1)C2 [Compound 38, 2-[(4-fluorophenyl)methyl]-2-azaspiro[3.3] heptan-6-yl (2R,6S)-4-(5-methanesulfonylpyrimidin-2-yl)-2,6-dimethyl-piperazine-1-carboxylate]",< 100
23,"C[C@@H]1CN(c2ncc(S(C)(=O)=O)cn2)[C@@H](C)CN1C(=O)NC1CC2(C1)CN(Cc1ccccc1)C2 [Compound 4, (2R,5S)-N-{2-benzyl-2-azaspiro[3.3]heptan-6-yl}-4-(5-methanesulfonyl-pyrimidin-2-yl)-2,5-dimethylpiperazine-1-carboxamide]",100 to 500
24,"C[C@@H]1CN(c2ncc(S(=O)(=O)C3CC3)cn2)C[C@H](C)N1C(=O)NC1CC2(C1)CN(Cc1ccccc1)C2 [Compound 3, (2R,6S)-N-{2-benzyl-2-azaspiro[3.3]heptan-6-yl}-4-[5-(cyclopropanesulfonyl)pyrimidin-2-yl]-2,6-dimethylpiperazine-1-carboxamide]",< 100
25,"Cc1nc(N2C[C@@H](C)N(C(=O)OC3CC4(C3)CN(Cc3ccccc3)C4)C[C@@H]2C)ncc1S(C)(=O)=O [Compound 25, 2-benzyl-2-azaspiro [3.3]heptan-6-yl (2R,5S)-4-(5-methane-sulfonyl-4-methyl-pyrimidin-2-yl)-2,5-dimethylpiperazine-1-carboxylate]",< 100
26,"COc1ccc(CN2CC3(CC(OC(=O)N4[C@H](C)CN(c5ncc(S(C)(=O)=O)cn5)C[C@@H]4C)C3)C2)cc1 [Compound 60, 2-[(4-methoxyphenyl)methyl]-2-azaspiro[3.3] heptan-6-yl (2R,6S)-4-(5-methanesulfonylpyrimidin-2-yl)-2,6-dimethyl-piperazine-1-carboxylate]",< 100
27,"C[C@@H]1CN(c2ncc(S(C)(=O)=O)cn2)C[C@H](C)N1C(=O)OC1CC2(C1)CN(Cc1ccccc1)C2 [Compound 33, 2-benzyl-2-azaspiro [3.3]heptan-6-yl (2R,6S)-4-(5-methane-sulfonylpyrimidin-2-yl)-2,6-dimethylpiperazine-1-carboxylate]",< 100
